Results taken from PMC6576746, “Rational discovery of dual-indication multi-target PDE/Kinase inhibitor for precision anti-cancer therapy using structural systems pharmacology” (PLoS Computational Biology, 2019).

Experiments:
Assay in all cases: biochemical
Set-up in all cases: DiscoverX KinomeScan competition binding assay across human kinases; per cent of control at 10 and 100 uM
[1] = molecular target: T1, RSK4(Kin.Dom.1-N-terminal) (Homo sapiens, UniProt Q9UK32); conditions: competition binding, % of control; read-out: Percent Control (100 uM Levosimendan)
T1 construct: gene RPS6KA6; Kin.Dom.1-N-terminal
Outline: (§1)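 KinomeScan competition binding was run across a human kinase panel at 10 μM and 100 μM levosimendan. Results are %control = (test − positive control)/(negative control − positive control) × 100.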

FLT3 = FLT3 (Homo sapiens, UniProt P36888); conditions: competition binding, % of control
FLT3, sequence (P36888 whole entry): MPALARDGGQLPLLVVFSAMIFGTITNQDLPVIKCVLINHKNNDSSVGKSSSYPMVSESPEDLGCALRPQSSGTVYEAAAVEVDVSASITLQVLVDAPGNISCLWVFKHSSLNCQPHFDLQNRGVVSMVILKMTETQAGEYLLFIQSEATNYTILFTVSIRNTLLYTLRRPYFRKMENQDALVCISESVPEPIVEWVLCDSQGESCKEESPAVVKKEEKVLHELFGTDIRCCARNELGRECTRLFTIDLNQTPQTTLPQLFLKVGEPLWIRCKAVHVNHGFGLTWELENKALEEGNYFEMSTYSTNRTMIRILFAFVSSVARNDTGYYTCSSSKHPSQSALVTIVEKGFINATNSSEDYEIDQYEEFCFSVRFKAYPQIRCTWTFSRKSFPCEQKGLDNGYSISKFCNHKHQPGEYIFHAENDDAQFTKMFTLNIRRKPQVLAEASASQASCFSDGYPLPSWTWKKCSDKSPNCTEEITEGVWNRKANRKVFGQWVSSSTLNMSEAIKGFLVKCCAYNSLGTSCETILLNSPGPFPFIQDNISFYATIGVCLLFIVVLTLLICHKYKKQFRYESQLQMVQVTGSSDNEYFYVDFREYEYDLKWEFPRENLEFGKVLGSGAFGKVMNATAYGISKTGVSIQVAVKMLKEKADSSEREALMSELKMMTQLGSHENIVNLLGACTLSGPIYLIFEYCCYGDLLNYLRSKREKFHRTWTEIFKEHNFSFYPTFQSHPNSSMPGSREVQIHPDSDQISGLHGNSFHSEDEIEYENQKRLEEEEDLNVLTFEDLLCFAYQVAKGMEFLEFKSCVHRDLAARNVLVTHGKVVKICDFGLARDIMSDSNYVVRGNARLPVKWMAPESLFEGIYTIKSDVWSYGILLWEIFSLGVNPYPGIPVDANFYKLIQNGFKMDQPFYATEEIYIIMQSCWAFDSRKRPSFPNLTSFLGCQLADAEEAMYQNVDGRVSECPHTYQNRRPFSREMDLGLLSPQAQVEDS
Outline: as §1

EGFR(L747-T751del,Sins) = EGFR(L747-T751del,Sins) (Homo sapiens, UniProt P00533, DEL747-750/T751S); conditions: competition binding, % of control; read-out: Percent Control (100 uM Levosimendan)
Outline: as §1

PIK3CB = PIK3CB (Homo sapiens, UniProt P42338); conditions: competition binding, % of control; read-out: Percent Control (100 uM Levosimendan)
Outline: as §1

RIOK1 = RIOK1 (Homo sapiens, UniProt Q9BRS2); conditions: competition binding, % of control
RIOK1, sequence (Q9BRS2 whole entry): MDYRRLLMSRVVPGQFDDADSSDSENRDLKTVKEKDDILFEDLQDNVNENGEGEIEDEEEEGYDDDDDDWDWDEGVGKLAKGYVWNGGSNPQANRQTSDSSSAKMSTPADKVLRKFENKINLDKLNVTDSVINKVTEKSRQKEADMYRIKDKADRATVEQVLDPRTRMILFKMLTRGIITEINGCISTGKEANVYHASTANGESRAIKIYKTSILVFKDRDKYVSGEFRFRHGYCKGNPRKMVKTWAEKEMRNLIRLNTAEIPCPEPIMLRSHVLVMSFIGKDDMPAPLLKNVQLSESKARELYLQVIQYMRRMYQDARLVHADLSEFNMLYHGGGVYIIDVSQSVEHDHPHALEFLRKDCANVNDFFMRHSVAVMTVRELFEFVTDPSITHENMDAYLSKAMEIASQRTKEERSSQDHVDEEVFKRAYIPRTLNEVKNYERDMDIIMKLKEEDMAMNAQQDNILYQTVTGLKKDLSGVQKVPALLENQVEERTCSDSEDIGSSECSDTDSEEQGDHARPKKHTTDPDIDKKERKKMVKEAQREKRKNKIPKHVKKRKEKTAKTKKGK
Outline: as §1

SRPK1 = SRPK1 (Homo sapiens, UniProt Q96SB4); conditions: competition binding, % of control
SRPK1, sequence (Q96SB4 whole entry): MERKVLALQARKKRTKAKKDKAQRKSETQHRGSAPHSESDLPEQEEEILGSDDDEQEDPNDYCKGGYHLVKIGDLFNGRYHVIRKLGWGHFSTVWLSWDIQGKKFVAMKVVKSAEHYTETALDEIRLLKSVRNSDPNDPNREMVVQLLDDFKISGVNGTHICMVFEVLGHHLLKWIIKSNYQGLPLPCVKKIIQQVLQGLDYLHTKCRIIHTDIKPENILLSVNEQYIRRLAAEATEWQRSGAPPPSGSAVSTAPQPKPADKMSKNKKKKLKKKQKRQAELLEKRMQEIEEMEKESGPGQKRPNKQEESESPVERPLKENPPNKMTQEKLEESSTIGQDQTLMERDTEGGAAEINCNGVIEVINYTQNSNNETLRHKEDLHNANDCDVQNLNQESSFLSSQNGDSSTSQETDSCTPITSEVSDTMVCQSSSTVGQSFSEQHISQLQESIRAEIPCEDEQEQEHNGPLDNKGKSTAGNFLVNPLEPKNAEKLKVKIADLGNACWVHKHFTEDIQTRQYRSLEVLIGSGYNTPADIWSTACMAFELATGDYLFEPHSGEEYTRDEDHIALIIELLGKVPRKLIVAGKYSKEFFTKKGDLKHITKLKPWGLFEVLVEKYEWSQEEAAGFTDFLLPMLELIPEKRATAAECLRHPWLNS
Outline: as §1

NEK6 = NEK6 (Homo sapiens, UniProt Q9HC98); conditions: competition binding, % of control; read-out: Percent Control (100 uM Levosimendan)
Outline: as §1

PKN1 = PKN1 (Homo sapiens, UniProt Q16512); conditions: competition binding, % of control; read-out: Percent Control (100 uM Levosimendan)
Outline: as §1

CTK = molecular target: T2, CTK (Homo sapiens, UniProt P42679); conditions: competition binding, % of control; read-out: Percent Control (100 uM Levosimendan)
T2 construct: gene MATK
Outline: as §1

MKNK2 = MKNK2 (Homo sapiens, UniProt Q9HBH9); conditions: competition binding, % of control
MKNK2, sequence (Q9HBH9 whole entry): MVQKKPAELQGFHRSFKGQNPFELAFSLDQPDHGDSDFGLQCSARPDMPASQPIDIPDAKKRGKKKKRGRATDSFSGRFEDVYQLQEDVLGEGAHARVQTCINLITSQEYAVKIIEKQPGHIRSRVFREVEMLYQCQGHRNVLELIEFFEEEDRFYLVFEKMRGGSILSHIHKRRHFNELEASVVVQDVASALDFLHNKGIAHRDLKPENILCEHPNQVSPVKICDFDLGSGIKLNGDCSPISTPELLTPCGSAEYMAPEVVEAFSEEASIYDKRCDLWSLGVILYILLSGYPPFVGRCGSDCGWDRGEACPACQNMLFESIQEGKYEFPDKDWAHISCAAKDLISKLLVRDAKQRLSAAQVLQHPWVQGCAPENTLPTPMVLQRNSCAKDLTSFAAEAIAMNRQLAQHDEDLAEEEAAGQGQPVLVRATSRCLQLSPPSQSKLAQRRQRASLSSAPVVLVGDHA
Outline: as §1

RIOK2 = RIOK2 (Homo sapiens, UniProt Q9BVS4); conditions: competition binding, % of control
RIOK2, sequence (Q9BVS4 whole entry): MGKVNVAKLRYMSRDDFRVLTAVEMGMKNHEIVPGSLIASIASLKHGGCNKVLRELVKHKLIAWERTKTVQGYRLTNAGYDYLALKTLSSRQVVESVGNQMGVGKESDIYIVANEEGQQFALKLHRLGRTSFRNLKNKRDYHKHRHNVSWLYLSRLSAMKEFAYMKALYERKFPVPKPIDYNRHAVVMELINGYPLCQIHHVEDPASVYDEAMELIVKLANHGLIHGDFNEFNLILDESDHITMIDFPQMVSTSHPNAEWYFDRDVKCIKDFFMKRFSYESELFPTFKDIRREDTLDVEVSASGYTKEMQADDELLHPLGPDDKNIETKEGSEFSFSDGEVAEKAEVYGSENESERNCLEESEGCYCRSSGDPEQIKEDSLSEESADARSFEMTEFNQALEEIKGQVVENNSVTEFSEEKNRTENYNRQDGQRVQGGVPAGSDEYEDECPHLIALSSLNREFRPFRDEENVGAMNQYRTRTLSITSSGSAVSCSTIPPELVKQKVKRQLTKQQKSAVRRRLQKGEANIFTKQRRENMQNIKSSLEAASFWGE
Outline: as §1

TESK1 = TESK1 (Homo sapiens, UniProt Q15569); conditions: competition binding, % of control; read-out: Percent Control (100 uM Levosimendan)
Outline: as §1

ANKK1 = ANKK1 (Homo sapiens, UniProt Q8NFD2); conditions: competition binding, % of control; read-out: Percent Control (100 uM Levosimendan)
Outline: as §1

CSNK1G2 = CSNK1G2 (Homo sapiens, UniProt P78368); conditions: competition binding, % of control
CSNK1G2, sequence (P78368 whole entry): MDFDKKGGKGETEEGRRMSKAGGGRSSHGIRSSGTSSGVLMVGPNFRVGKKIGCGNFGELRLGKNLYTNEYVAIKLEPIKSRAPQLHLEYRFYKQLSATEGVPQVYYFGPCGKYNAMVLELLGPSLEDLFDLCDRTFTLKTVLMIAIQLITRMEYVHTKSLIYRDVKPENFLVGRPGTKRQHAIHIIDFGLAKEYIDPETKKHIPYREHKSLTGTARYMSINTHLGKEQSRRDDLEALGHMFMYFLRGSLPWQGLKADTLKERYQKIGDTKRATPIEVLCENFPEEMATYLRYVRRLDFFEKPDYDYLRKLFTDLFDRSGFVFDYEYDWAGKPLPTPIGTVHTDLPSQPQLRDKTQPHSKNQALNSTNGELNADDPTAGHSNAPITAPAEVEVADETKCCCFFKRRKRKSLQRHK
Outline: as §1

CAMK2G = CAMK2G (Homo sapiens, UniProt Q13555); conditions: competition binding, % of control; read-out: Percent Control (100 uM Levosimendan)
Outline: as §1

MAP4K4 = MAP4K4 (Homo sapiens, UniProt O95819); conditions: competition binding, % of control; read-out: Percent Control (100 uM Levosimendan)
Outline: as §1

YSK4 = molecular target: T3, YSK4 (Homo sapiens, UniProt Q56UN5); conditions: competition binding, % of control
T3 construct: gene MAP3K19
T3 sequence (Q56UN5 whole entry): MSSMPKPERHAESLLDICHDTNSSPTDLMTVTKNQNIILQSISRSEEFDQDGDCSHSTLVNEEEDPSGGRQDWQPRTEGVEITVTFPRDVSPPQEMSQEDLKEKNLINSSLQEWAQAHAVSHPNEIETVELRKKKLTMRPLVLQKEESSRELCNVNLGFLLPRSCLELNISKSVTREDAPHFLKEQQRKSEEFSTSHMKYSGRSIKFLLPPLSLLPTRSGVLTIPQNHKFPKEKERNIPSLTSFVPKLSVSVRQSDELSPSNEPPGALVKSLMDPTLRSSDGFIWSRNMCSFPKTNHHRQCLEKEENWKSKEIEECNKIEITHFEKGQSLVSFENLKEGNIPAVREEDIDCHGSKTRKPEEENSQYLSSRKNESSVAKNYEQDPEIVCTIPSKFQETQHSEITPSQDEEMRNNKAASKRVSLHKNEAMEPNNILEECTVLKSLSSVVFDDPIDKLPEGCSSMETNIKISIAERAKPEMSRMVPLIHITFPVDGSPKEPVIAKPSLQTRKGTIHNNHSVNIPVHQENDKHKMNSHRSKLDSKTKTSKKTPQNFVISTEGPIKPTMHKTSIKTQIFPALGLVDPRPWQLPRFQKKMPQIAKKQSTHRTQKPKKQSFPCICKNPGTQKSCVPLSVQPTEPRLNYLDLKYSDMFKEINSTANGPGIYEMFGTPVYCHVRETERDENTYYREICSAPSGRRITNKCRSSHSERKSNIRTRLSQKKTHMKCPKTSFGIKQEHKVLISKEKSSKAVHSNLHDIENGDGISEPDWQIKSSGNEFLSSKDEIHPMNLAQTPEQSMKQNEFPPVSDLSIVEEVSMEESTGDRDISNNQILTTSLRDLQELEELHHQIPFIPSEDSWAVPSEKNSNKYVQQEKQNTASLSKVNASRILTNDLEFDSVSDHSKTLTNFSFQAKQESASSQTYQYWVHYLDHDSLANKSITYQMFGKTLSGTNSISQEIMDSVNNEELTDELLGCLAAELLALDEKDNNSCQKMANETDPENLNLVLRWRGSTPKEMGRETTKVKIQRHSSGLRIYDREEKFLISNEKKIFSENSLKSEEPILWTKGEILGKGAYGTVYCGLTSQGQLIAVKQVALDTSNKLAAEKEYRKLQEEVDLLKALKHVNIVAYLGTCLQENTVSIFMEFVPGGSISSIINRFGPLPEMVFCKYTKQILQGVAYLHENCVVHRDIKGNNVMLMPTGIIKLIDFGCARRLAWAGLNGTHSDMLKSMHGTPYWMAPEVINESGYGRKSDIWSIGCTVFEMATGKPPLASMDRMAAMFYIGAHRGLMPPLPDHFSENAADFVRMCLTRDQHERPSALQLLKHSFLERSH
Outline: as §1

TRKA = molecular target: T4, TRKA (Homo sapiens, UniProt P04629); conditions: competition binding, % of control; read-out: Percent Control (100 uM Levosimendan)
T4 construct: gene NTRK1
Outline: as §1

[2] = read-out: Percent Control (10 uM Levosimendan)
[3] = read-out: Percent Control (100 uM Levosimendan)

remaining binding at 100 µM [1]: 100% | remaining binding at 10 µM (FLT3; [2]): 24% | remaining binding at 100 µM (FLT3; [3]): 0.9% | remaining binding at 100 µM (EGFR(L747-T751del,Sins)): 59% | remaining binding at 100 µM (PIK3CB): 100% | remaining binding at 10 µM (RIOK1; [2]): 15% | remaining binding at 100 µM (RIOK1; [3]): 0% | remaining binding at 10 µM (SRPK1; [2]): 36% | remaining binding at 100 µM (SRPK1; [3]): 40% | remaining binding at 100 µM (NEK6): 71% | remaining binding at 100 µM (PKN1): 100% | remaining binding at 100 µM (CTK): 72% | remaining binding at 10 µM (MKNK2; [2]): 59% | remaining binding at 100 µM (MKNK2; [3]): 7.5% | remaining binding at 10 µM (RIOK2; [2]): 67% | remaining binding at 100 µM (RIOK2; [3]): 27% | remaining binding at 100 µM (TESK1): 96% | remaining binding at 100 µM (ANKK1): 77% | remaining binding at 10 µM (CSNK1G2; [2]): 62% | remaining binding at 100 µM (CSNK1G2; [3]): 4.8% | remaining binding at 100 µM (CAMK2G): 88% | remaining binding at 100 µM (MAP4K4): 100% | remaining binding at 10 µM (YSK4; [2]): 48% | remaining binding at 100 µM (YSK4; [3]): 10% | remaining binding at 100 µM (TRKA): 65%
SMILES: C[C@@H]1CC(=O)NN=C1c1ccc(NN=C(C#N)C#N)cc1 [levosimendan]
